Test results published in patent US11464720B2, “TRPA1 activity inhibitor” (MANDOM CORPORATION, priority 2017, dated 2022).

Experiments:
human TRPA1 = molecular target: T1, human TRPA1 (Homo sapiens, UniProt O75762); experiment: Test Example 1: TRPA1 activity-inhibition ratio, intracellular calcium (Fura 2-AM) in TRPA1-expressing HEK293 cells stimulated with menthol; format: cell-based; details: mixed with agonist 1 mM menthol
T1 construct: expressed in transfected cells; host or cells: HEK293 cells, transient lipofection of pcDNA3.1(+) human TRPA1-expression vector
Method: A cDNA encoding human TRPA1 [a polynucleotide of position 63 to position 3888 of the nucleotide sequence shown in SEQ ID NO: 1 (GenBank Accession No.: NM_007332)] was inserted into a cloning site of a vector for mammalian cells [manufactured by Invitrogen under the trade name of pcDNA3.1(+)], to obtain a human TRPA1-expression vector. One microgram of the resulting human TRPA1-expression vector was mixed with 6 μL of a gene transfer reagent [manufactured by Invitrogen under the trade name of PLUS Reagent, Catalogue No.: 11514-015], to obtain a mixture I. Additionally, 4 μL of a cationic lipid for gene transfer [manufactured by Invitrogen under the trade name of Lipofectamine (registered trademark), Catalogue No.: 18324-012] was mixed with 200 μL of a medium for reducing serum consumption [Manufactured by Invitrogen under the trade name of Opti-MEM (registered trademark) I Reduced Serum Medium (catalogue No.: 11058021)], to obtain a mixture II.
Furthermore, 5×10^5 cells of HEK293 cells were cultured in a 10% by mass fetal bovine serum (FBS)-containing Dulbecco's modified Eagle's medium (DMEM) on a dish having a diameter of 35 mm maintained at 37° C. under 5% by volume carbon dioxide atmosphere to 70% confluence.
By adding the mixture I and the mixture II to the resulting cell culture, the human TRPA1-expression vector was introduced into HEK293 cells, to obtain TRPA1-expressing cells. […]
Thereafter, intensity of fluorescence A based on the Fura 2-AM introduced into the TRPA1-expressing cell and bound to a calcium ion in the cells at an excitation wavelength of 340 nm in the chamber and intensity of fluorescence B based on the Fura 2-AM introduced into the TRAP1-expressing cell at an excitation wavelength of 380 nm were measured.
Using the measured intensity of fluorescence A and B, Δfluorescence intensity ratioagonist was calculated. The Δfluorescence intensity ratioagonist was calculated on the basis of the formula (IV): [Formula 1] ΔFluorescence intensity ratioagonist=(Fluorescence intensity340 nm in the presence of an agonist/Fluorescence intensity 380 nm in the presence of an agonist)−(Fluorescence intensity340 nm in the presence of a control/Fluorescence intensity380 nm in the presence of a control) (IV).
In the formula (IV), the intensity of fluorescence A was used as fluorescence intensity340 nm, and the intensity of fluorescence B was used as fluorescence intensity380 nm. […]

human TRPM8 = molecular target: T2, human TRPM8 (Homo sapiens, UniProt Q7Z2W7); experiment: Test Example 2: enhancement degree of TRPM8 activity, intracellular calcium (Fura 2-AM) in TRPM8-expressing HEK293 cells; format: cell-based; details: test sample 0.5 mM, ratio to TRPM8 activity enhanced by agonist 1 mM menthol, FIG. 2
T2 construct: expressed in transfected cells; host or cells: HEK293 cells, transient lipofection of pcDNA3.1(+) human TRPM8-expression vector
Method: A cDNA encoding human TRPM8 [a polynucleotide of position 41 to position 3355 of the nucleotide sequence shown in SEQ ID NO: 3 (GenBank Accession No.: NM_024080)] was inserted into a cloning site of a vector for mammalian cells [manufactured by Invitrogen under the trade name of pcDNA3.1(+)], to obtain a human TRPM8-expression vector. One microgram of the resulting human TRPM8-expression vector was mixed with 6 μL of a gene transfer reagent [manufactured by Invitrogen under the trade name of PLUS Reagent, Catalogue No.: 11514-015], to obtain a mixture III. […]
Thereafter, intensity of fluorescence E based on the Fura 2-AM introduced into the TRPM8-expressing cell and bound to a calcium ion in the cells at an excitation wavelength of 340 nm and intensity of fluorescence F based on the Fura 2-AM introduced into the TRAM8-expressing cell at an excitation wavelength of 380 nm were measured in the chamber.
Using the measured intensity of fluorescence E and F, Δfluorescence intensity ratiotest sample was calculated on the basis of the formula (V). In the formula (V), the intensity of fluorescence E was used as fluorescence intensity340 nm, and the intensity of fluorescence F was used as fluorescence intensity380 nm. […]

[1] = test sample 1 mM in solvent A, FIG. 1

T1 sequence (O75762 whole entry): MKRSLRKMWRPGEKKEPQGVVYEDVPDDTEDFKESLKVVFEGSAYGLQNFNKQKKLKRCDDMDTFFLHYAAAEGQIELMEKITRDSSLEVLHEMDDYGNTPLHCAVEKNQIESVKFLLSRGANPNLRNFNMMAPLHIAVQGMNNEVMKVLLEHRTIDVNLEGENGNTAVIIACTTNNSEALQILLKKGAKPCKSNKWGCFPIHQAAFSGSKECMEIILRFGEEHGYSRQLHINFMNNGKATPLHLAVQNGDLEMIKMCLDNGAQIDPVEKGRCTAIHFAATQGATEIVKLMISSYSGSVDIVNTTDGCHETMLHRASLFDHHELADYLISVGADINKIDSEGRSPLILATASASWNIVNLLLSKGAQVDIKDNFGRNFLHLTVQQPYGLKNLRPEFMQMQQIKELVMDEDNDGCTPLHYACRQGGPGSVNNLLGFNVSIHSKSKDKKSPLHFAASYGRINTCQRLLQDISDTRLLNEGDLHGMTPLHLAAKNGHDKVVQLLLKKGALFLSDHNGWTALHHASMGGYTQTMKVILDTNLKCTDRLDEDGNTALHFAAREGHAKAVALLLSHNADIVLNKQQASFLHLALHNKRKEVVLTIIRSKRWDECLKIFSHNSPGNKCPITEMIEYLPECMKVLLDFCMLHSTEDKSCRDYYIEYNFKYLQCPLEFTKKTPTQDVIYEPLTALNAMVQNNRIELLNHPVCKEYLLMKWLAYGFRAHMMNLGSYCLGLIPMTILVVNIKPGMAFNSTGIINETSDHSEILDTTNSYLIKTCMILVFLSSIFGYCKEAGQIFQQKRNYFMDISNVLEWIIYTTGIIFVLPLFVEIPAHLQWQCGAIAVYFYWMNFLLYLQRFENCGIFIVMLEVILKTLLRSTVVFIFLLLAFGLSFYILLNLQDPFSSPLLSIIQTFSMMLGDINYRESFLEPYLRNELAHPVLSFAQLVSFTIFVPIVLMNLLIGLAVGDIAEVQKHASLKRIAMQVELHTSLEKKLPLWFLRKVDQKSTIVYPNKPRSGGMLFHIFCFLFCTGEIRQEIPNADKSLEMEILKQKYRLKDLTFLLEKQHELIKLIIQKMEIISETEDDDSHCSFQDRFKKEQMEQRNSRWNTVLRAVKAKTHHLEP
T2 sequence (Q7Z2W7 whole entry): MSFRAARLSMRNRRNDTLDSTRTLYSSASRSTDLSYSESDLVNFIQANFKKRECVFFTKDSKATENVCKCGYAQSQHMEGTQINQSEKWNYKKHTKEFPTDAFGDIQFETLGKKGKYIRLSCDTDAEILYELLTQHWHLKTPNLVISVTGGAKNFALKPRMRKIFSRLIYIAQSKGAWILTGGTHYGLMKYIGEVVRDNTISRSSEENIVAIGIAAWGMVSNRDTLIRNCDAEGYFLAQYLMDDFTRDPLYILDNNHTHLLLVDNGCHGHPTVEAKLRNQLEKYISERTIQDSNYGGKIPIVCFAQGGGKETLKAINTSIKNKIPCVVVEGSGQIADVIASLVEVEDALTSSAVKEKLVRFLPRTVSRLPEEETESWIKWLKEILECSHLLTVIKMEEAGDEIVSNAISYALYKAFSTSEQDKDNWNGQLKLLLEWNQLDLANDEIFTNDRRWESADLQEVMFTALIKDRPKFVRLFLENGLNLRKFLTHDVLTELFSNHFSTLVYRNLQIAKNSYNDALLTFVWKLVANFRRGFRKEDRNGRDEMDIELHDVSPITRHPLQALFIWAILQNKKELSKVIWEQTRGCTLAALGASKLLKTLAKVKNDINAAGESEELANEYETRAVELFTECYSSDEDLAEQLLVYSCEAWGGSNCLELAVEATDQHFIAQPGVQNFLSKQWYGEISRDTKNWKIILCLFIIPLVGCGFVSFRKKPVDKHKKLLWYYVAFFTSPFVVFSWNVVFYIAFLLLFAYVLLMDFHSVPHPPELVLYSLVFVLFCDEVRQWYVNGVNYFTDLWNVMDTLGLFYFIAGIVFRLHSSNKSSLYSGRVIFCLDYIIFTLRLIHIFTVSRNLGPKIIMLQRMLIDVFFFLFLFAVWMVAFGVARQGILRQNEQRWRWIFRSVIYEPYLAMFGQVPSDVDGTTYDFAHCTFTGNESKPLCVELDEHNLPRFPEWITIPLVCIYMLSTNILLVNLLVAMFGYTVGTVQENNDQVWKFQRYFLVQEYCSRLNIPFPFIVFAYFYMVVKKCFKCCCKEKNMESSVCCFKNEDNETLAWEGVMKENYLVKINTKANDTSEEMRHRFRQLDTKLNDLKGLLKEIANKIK

| TRPA1 activity-inhibition ratio (human TRPA1; test sample 5 mM glycerol in solvent A, FIG. 1 lane 4) [%] | Enhancement degree of TRPM8 activity (human TRPM8) | TRPA1 activity-inhibition ratio (human TRPA1; [1]) | SMILES |
| --- | --- | --- | --- |
| ≤ 0 | – | – | OCC(O)CO [Comparative Example 1, Glycerol] |
| – | about 0.69 | about 99% | CC1(C)C2CCC1(C)C(OCCO)C2 (stereo not drawn) [Example 1, 2-isobornyloxyethanol] |
| – | about 0.35 | about 96% | CC1(C)C2CCC1(C)C(O)C2 (stereo not drawn) [Reference Example 1, Borneol] |
| – | – | about 71% | CC12CCC(CC1)C(C)(C)O2 [Reference Example 2, 1,8-cineole] |
